Measurements published in patent US5300629A, “Bactericidal and/or bacteriostatic peptides isolated from hemolymph of honeybees” (Plant Genetic Systems, N.V., priority 1987, dated 1994).
≈ marks a conversion by molar mass, not a printed value. Where a SMILES comes first, the peptide text is derived from it.

Experiments:
Type in all cases: cell-based
[1] = system: Yersinia enterocolitica PGS C-1106; assay: Inhibition zone assay; conditions: * synthetic ApidIa and heattreated immune lymph instead of Bee6 and native immune lymph
[2] = system: Pseudomonas solanacearum ATCC 11696; set-up: key: --: "-" means that no inhibition has been found; conditions: * synthetic ApidIa and heattreated immune lymph instead of Bee6 and native immune lymph
[3] = system: Pseudomonas syringae pv. maculicola NCPPB 1776; assay: Inhibition zone assay; conditions: * synthetic ApidIa and heattreated immune lymph instead of Bee6 and native immune lymph
[4] = system: Pseudomonas syringae pv. tabaci NCPPB 1237; assay: Inhibition zone assay; conditions: * synthetic ApidIa and heattreated immune lymph instead of Bee6 and native immune lymph
[5] = system: Pseudomonas syringae pv. tomato NCPPB 1106; assay: Inhibition zone assay; conditions: * synthetic ApidIa and heattreated immune lymph instead of Bee6 and native immune lymph
[6] = system: Xanthomonas campestris pv. campestris A 902; assay: Inhibition zone assay; set-up: key: --: "-" means that no inhibition has been found; conditions: * synthetic ApidIa and heattreated immune lymph instead of Bee6 and native immune lymph
[7] = system: Agrobactierium tumefaciens DSM 3129; assay: Minimal inhibitory concentration in liquid culture; conditions: 200 μl rich medium, 10^4 log-phase bacteria
[8] = system: Corynebacterium insidiosum NCPPB 1109; assay: Minimal inhibitory concentration in liquid culture; conditions: 200 μl rich medium, 10^4 log-phase bacteria
Method: (§1) In addition the exact concentration was determined precisely by amino-acid analysis and an equal sample of natural Bee 6b was prepared, allowing to compare the bactericidal activity of both natural and synthetic apidaecins by means of growth inhibition assays in liquid cultures (see mat & Meth.). The minimal inhibitory concentrations (μg/ml) were determined in liquid culture : 200 μl of a rich medium (trypticase soy broth or nutrient broth) was inoculated with 10^4 log-phase bacteria. Peptide concentrations ranged between 0 and 200 μg/ml. The values express μg/ml; when no inhibition was noticed the maximal values are given (+200 μg/ml or +50 μg/ml). All peptides were chemically synthesized, except for bee 6b which is purified from bee lymph.

[9] = system: Corynebacterium michiganense pv. michiganense NCPPB 1573; assay: Minimal inhibitory concentration in liquid culture; conditions: 200 μl rich medium, 10^4 log-phase bacteria, + = no inhibition at maximal value
Method: as §1

[10] = system: Shigella flexneri CP 87; assay: Minimal inhibitory concentration in liquid culture; conditions: 200 μl rich medium, 10^4 log-phase bacteria
Method: as §1

[11] = system: Xanthomonas campestris pv. vesicatoria LMG 905; assay: Minimal inhibitory concentration in liquid culture; conditions: 200 μl rich medium, 10^4 log-phase bacteria, + = no inhibition at maximal value
Method: as §1

[12] = system: Erwinia carotovora var atroseptica LMG 2385; assay: Minimal inhibitory concentration in liquid culture; conditions: 200 μl rich medium, 10^4 log-phase bacteria
[13] = system: Erwinia carotovora var carotovora NCPPB 312; assay: Minimal inhibitory concentration in liquid culture; conditions: 200 μl rich medium, 10^4 log-phase bacteria
[14] = system: Erwinia salicis NCPPB 2530; assay: Minimal inhibitory concentration in liquid culture; conditions: 200 μl rich medium, 10^4 log-phase bacteria
[15] = system: Pseudomonas syringae pv. tomato NCPPB 1106; assay: Minimal inhibitory concentration in liquid culture; conditions: 200 μl rich medium, 10^4 log-phase bacteria
[16] = system: Pseudomonas syringae pv. maculicola NCPPB 1776; assay: Minimal inhibitory concentration in liquid culture; conditions: 200 μl rich medium, 10^4 log-phase bacteria
[17] = system: Pseudomonas syringae pv. tabaci NCPPB 1237; assay: Minimal inhibitory concentration in liquid culture; conditions: 200 μl rich medium, 10^4 log-phase bacteria
[18] = system: Pseudomonas solanacearum ATCC 11696; conditions: 200 μl rich medium, 10^4 log-phase bacteria
[19] = system: Rhizobium meliloti ZB 314; assay: Minimal inhibitory concentration in liquid culture; conditions: 200 μl rich medium, 10^4 log-phase bacteria
[20] = system: Xanthomonas campestris pv. campestris A 902; assay: Minimal inhibitory concentration in liquid culture; conditions: 200 μl rich medium, 10^4 log-phase bacteria, + = no inhibition at maximal value
[21] = system: Citrobacter freundii ATCC 8090; assay: Minimal inhibitory concentration in liquid culture; conditions: 200 μl rich medium, 10^4 log-phase bacteria
[22] = system: Escherichia coli NCTC 9001; assay: Minimal inhibitory concentration in liquid culture; conditions: 200 μl rich medium, 10^4 log-phase bacteria
[23] = system: Salmonella Newport CD 94; assay: Minimal inhibitory concentration in liquid culture; conditions: 200 μl rich medium, 10^4 log-phase bacteria
[24] = system: Salmonella typhimurium ATCC 23565; assay: Minimal inhibitory concentration in liquid culture; conditions: 200 μl rich medium, 10^4 log-phase bacteria
[25] = system: Bacillus megaterium QB 1551; assay: Minimal inhibitory concentration in liquid culture; conditions: 200 μl rich medium, 10^4 log-phase bacteria, + = no inhibition at maximal value
[26] = system: E. coli NCTC 9001; conditions: E. coli NCTC 9001; 4 μg/well
Method: Whole lymph or purified components, resuspended in PBS to a final volume equal to the starting material (heated lymph), was applied in 3 mm wells on agar plates seeded with the test organisms. Antibacterial activity was determined by measuring the growth-inhibition zones (in mm).
Test conditions: agar inhibition zone obtained with 10 namomole apidaecin, resuspended in 20 μl H2 O/well.

[27] = system: E. coli NCTC 9001; assay: Bactericidal activity, method not stated; conditions: lyophilized apidaecins resuspended in PBS
[28] = system: protoplasts derived from Lactobacillus sp; assay: Protoplast regeneration, agar diffusion assay; conditions: Lactobacillus protoplasts on RM MRS medium, 4 μg/well
Method: Protoplasts were made using lysozyme concentrations ranging between 0 and 5 mg/ml and then incubated for 1 hour in the presence of Apid Ia (concentrations ranging between 0-10 μg/ml) . Cells were pelleted, resuspended and plated out on RM MRS. To estimate the ratio of protoplasts/normal cells, controls were plated out on MRS without the stabilizing sucrose. This prevented the regenerating of the protoplasts and enabled the deduction of the number of normal cells. To evaluate the regeneration capability of the said protoplasts in the presence of Apid Ia an agar diffusion assay was performed : the protoplasts were applied on RM MRS medium, wells were made and filled up with an apidaecin solution (4 μg/well).

Question: `CC[C@H](C)[C@H](NC(=O)[C@H](CCCNC(=N)N)NC(=O)[C@@H]1CCCN1C(=O)[C@H](Cc1c[nH]cn1)NC(=O)[C@@H]1CCCN1C(=O)[C@@H]1CCCN1C(=O)[C@H](CCCNC(=N)N)NC(=O)[C@@H]1CCCN1C(=O)[C@H](CCC(N)=O)NC(=O)[C@@H]1CCCN1C(=O)[C@@H](NC(=O)[C@H](Cc1ccc(O)cc1)NC(=O)[C@@H](NC(=O)[C@@H]1CCCN1C(=O)[C@H](CCCNC(=N)N)NC(=O)[C@H](CC(N)=O)NC(=O)[C@H](CC(N)=O)NC(=O)CN)C(C)C)[C@@H](C)CC)C(=O)O` [Apid Ia] (H-GNNRPVYIPQPRPPHPRI-OH) was tested. Which “diameter of growth-inhibition zone” value [1] did it give?
Answer: 9 mm

Question: What about the “diameter of growth-inhibition zone” value [2] of the same compound?
Answer: --

Question: And the “diameter of growth-inhibition zone” value [3]?
Answer: 8 mm

Question: And the “diameter of growth-inhibition zone” value [4]?
Answer: 7 mm

Question: And the “diameter of growth-inhibition zone” value [5]?
Answer: 9 mm

Question: And the “diameter of growth-inhibition zone” value [6]?
Answer: --

Question: What about the minimal inhibitory concentration [7] of the same compound?
Answer: 0.2 mg/L (≈ 0.0949 µM)

Question: And the minimal inhibitory concentration [8]?
Answer: 50 mg/L (≈ 23.7 µM)

Question: What about the minimal inhibitory concentration [9] of the same compound?
Answer: > 50 mg/L

Question: What about the minimal inhibitory concentration [10] of the same compound?
Answer: 0.1 mg/L (≈ 0.0474 µM)

Question: What about the minimal inhibitory concentration [11] of the same compound?
Answer: > 50 mg/L

Question: And the minimal inhibitory concentration [12]?
Answer: 1 mg/L (≈ 0.474 µM)

Question: What about the minimal inhibitory concentration [13] of the same compound?
Answer: 1 mg/L (≈ 0.474 µM)

Question: What about the minimal inhibitory concentration [14] of the same compound?
Answer: 0.02 mg/L (≈ 0.00949 µM)

Question: And the minimal inhibitory concentration [15]?
Answer: 0.2 mg/L (≈ 0.0949 µM)

Question: And the minimal inhibitory concentration [16]?
Answer: 0.5 mg/L (≈ 0.237 µM)

Question: And the minimal inhibitory concentration [17]?
Answer: 0.5 mg/L (≈ 0.237 µM)

Question: And the minimal inhibitory concentration [18]?
Answer: 25 mg/L (≈ 11.9 µM)

Question: What about the minimal inhibitory concentration [19] of the same compound?
Answer: 0.1 mg/L (≈ 0.0474 µM)

Question: What about the minimal inhibitory concentration [20] of the same compound?
Answer: > 50 mg/L

Question: And the minimal inhibitory concentration [21]?
Answer: 0.15 mg/L (≈ 0.0711 µM)

Question: What about the minimal inhibitory concentration [22] of the same compound?
Answer: 0.1 mg/L (≈ 0.0474 µM)

Question: And the minimal inhibitory concentration [23]?
Answer: 0.2 mg/L (≈ 0.0949 µM)

Question: And the minimal inhibitory concentration [24]?
Answer: 0.1 mg/L (≈ 0.0474 µM)

Question: And the minimal inhibitory concentration [25]?
Answer: 150 mg/L

Question: What about the “inhibition zone, positive control of the protoplast test” value [26] of the same compound?
Answer: clear inhibition zone

Question: And the bactericidal activity [27]?
Answer: possessed a bactericidal activity

Question: And the “inhibition zone, regeneration of protoplasts” value [28]?
Answer: No inhibition zone was noticed
